{"source": "patent US10098870B2", "about": "(JENKEM TECHNOLOGY CO., LTD. (BEIJING), priority 2013, dated 2018)", "key": {"[1]": {"test_system": "human hepatoma cell Hep3B", "test": "Anti-tumor effect on xenograft tumor model of Hep3B in immune deficiency mice (Example 7)", "conditions": "mean ± SE", "text": "The tumor cells were passaged with digestion by trypsin-EDTA twice a week. The cells in the exponential growth phase were collected, counted, and used for inoculation."}, "[2]": {"test": "Body weight, survival and tolerance of mice bearing Hep3B (Example 7)", "type": "in vivo, mouse", "conditions": "mean ± SE"}, "[3]": {"test": "Body weight, survival and tolerance of mice bearing plc/prf/5 (Example 6)", "type": "in vivo, nude mouse", "conditions": "mean ± SE", "excerpt": "Wherein QW×4W represents intravenous injection once a week for 4 weeks, BIW×4W represents intravenous injection […] for 4 weeks, the same below. (2) Experimental Results"}, "[4]": {"test_system": "A549 human non-small cell lung cancer cells", "test": "Anti-tumor effect on xenograft tumor model of A549 in nude mice (Example 10);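 as to all read-outs here: nude mice bearing A549 xenografts established by inoculating 1.0×10^7 cells in PBS at the right shoulder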", "conditions": "for T/C (%) RTV / T/C (%) TW: vs physiological saline; for RTV / Tumor weight: 52nd day, Mean ± SEM; for Tumor volume: mean ± SE", "experimental": "A549 cells were cultured with a monolayer in vitro in RPMI1640 medium supplied with heat-inactivated fetal bovine serum with a volume ratio of 10%, and an incubator at 37° C. with the air containing CO2 with a proportion of 5%. The tumor cells were passaged with digestion by trypsin-EDTA twice a week. The cells in the exponential growth phase were collected, counted, and used for inoculation.\n1.0×10^7 of A549 tumor cells were suspended in 0.1 ml of PBS, inoculated to each nude mouse at the right shoulder, and there were totally 36 mice inoculated."}, "[5]": {"conditions": "day 30 after inoculation, 30 mg/kg i.v. BIW×4W"}, "[6]": {"conditions": "day 30 after inoculation, 45 mg/kg i.v. QW×4W"}, "[7]": {"conditions": "day 34 after inoculation, 30 mg/kg i.v. BIW×4W"}, "[8]": {"conditions": "day 34 after inoculation, 45 mg/kg i.v. QW×4W"}, "[9]": {"conditions": "day 37 after inoculation, 30 mg/kg i.v. BIW×4W"}, "[10]": {"conditions": "day 37 after inoculation, 45 mg/kg i.v. QW×4W"}, "[11]": {"conditions": "day 41 after inoculation, 30 mg/kg i.v. BIW×4W"}, "[12]": {"conditions": "day 41 after inoculation, 45 mg/kg i.v. QW×4W"}, "[13]": {"conditions": "day 20 after inoculation, 30 mg/kg i.v. BIW×4W"}, "[14]": {"conditions": "day 20 after inoculation, 45 mg/kg i.v. QW×4W"}, "[15]": {"conditions": "day 27 after inoculation, 30 mg/kg i.v. BIW×4W"}, "[16]": {"conditions": "day 27 after inoculation, 45 mg/kg i.v. QW×4W"}, "[17]": {"conditions": "day 24 after inoculation, 30 mg/kg i.v. BIW×4W"}, "[18]": {"conditions": "day 24 after inoculation, 45 mg/kg i.v. QW×4W"}, "[19]": {"conditions": "day 31 after inoculation, 30 mg/kg i.v. BIW×4W"}, "[20]": {"conditions": "day 31 after inoculation, 45 mg/kg i.v. QW×4W"}, "[21]": {"conditions": "day 38 after inoculation, 30 mg/kg i.v. BIW×4W"}, "[22]": {"conditions": "day 38 after inoculation, 45 mg/kg i.v. QW×4W"}}, "note": "Several values for one entry are separate records, joined by “and”; a condition that tells them apart may be missing. Equal values may be shown once."}
{"substance": "monomethoxy polyethylene glycol (20K)-glutamic acid dipeptide-rapamycin conjugate [LPR-2]", "values": [{"measurement": "Tumor volume", "setting": "[1]; [5]", "value": "689 ± 57", "unit": "mm^3"}, {"measurement": "Tumor volume", "setting": "[1]; [6]", "value": "584 ± 87", "unit": "mm^3"}, {"measurement": "Tumor volume", "setting": "[1]; [7]", "value": "761 ± 82", "unit": "mm^3"}, {"measurement": "Tumor volume", "setting": "[1]; [8]", "value": "608 ± 89", "unit": "mm^3"}, {"measurement": "Tumor volume", "setting": "[1]; [9]", "value": "899 ± 97", "unit": "mm^3"}, {"measurement": "Tumor volume", "setting": "[1]; [10]", "value": "699 ± 102", "unit": "mm^3"}, {"measurement": "Tumor volume", "setting": "[1]; [11]", "value": "995 ± 126", "unit": "mm^3"}, {"measurement": "Tumor volume", "setting": "[1]; [12]", "value": "733 ± 93", "unit": "mm^3"}, {"measurement": "Body weight of animal", "setting": "[2]; day 16 after inoculation, 30 mg/kg i.v. BIW×4W", "value": "20.2 ± 0.6", "unit": "g"}, {"measurement": "Body weight of animal", "setting": "[2]; day 16 after inoculation, 45 mg/kg i.v. QW×4W", "value": "19.2 ± 0.5", "unit": "g"}, {"measurement": "Body weight of animal", "setting": "[2]; [13]", "value": "19.7 ± 0.4", "unit": "g"}, {"measurement": "Body weight of animal", "setting": "[2]; [14]", "value": "18.6 ± 0.4", "unit": "g"}, {"measurement": "Body weight of animal", "setting": "[2]; day 23 after inoculation, 30 mg/kg i.v. BIW×4W", "value": "20.4 ± 0.5", "unit": "g"}, {"measurement": "Body weight of animal", "setting": "[2]; day 23 after inoculation, 45 mg/kg i.v. QW×4W", "value": "18.6 ± 0.4", "unit": "g"}, {"measurement": "Body weight of animal", "setting": "[2]; [15]", "value": "19.7 ± 0.5", "unit": "g"}, {"measurement": "Body weight of animal", "setting": "[2]; [16]", "value": "17.9 ± 0.4", "unit": "g"}, {"measurement": "Body weight of animal", "setting": "[2]; [5]", "value": "19.1 ± 0.5", "unit": "g"}, {"measurement": "Body weight of animal", "setting": "[2]; [6]", "value": "18.2 ± 0.4", "unit": "g"}, {"measurement": "Body weight of animal", "setting": "[2]; [7]", "value": "19.1 ± 0.6", "unit": "g"}, {"measurement": "Body weight of animal", "setting": "[2]; [8]", "value": "18.2 ± 0.4", "unit": "g"}, {"measurement": "Body weight of animal", "setting": "[2]; [9]", "value": "18.6 ± 0.4", "unit": "g"}, {"measurement": "Body weight of animal", "setting": "[2]; [10]", "value": "18.0 ± 0.3", "unit": "g"}, {"measurement": "Body weight of animal", "setting": "[2]; [11]", "value": "17.9 ± 0.3", "unit": "g"}, {"measurement": "Body weight of animal", "setting": "[2]; [12]", "value": "16.7 ± 0.5", "unit": "g"}, {"measurement": "Body weight of animal", "setting": "[2]; day 44 after inoculation, 30 mg/kg i.v. BIW×4W", "value": "17.3 ± 0.3", "unit": "g"}, {"measurement": "Body weight of animal", "setting": "[2]; day 44 after inoculation, 45 mg/kg i.v. QW×4W", "value": "17.1 ± 0.4", "unit": "g"}, {"measurement": "Body weight of animal", "setting": "[3]; day 10 after inoculation, 30 mg/kg i.v. BIW×4W", "value": "19.9 ± 0.5", "unit": "g"}, {"measurement": "Body weight of animal", "setting": "[3]; day 10 after inoculation, 45 mg/kg i.v. QW×4W", "value": "19.8 ± 0.5", "unit": "g"}, {"measurement": "Body weight of animal", "setting": "[3]; day 13 after inoculation, 30 mg/kg i.v. BIW×4W", "value": "19.6 ± 0.8", "unit": "g"}, {"measurement": "Body weight of animal", "setting": "[3]; day 13 after inoculation, 45 mg/kg i.v. QW×4W", "value": "18.9 ± 0.5", "unit": "g"}, {"measurement": "Body weight of animal", "setting": "[3]; day 17 after inoculation, 30 mg/kg i.v. BIW×4W", "value": "20.7 ± 0.7", "unit": "g"}, {"measurement": "Body weight of animal", "setting": "[3]; day 17 after inoculation, 45 mg/kg i.v. QW×4W", "value": "20.2 ± 0.3", "unit": "g"}, {"measurement": "Body weight of animal", "setting": "[3]; [13]", "value": "20.4 ± 0.6", "unit": "g"}, {"measurement": "Body weight of animal", "setting": "[3]; [14]", "value": "19.7 ± 0.3", "unit": "g"}, {"measurement": "Body weight of animal", "setting": "[3]; [17]", "value": "20.6 ± 0.7", "unit": "g"}, {"measurement": "Body weight of animal", "setting": "[3]; [18]", "value": "21.1 ± 0.3", "unit": "g"}, {"measurement": "Body weight of animal", "setting": "[3]; [15]", "value": "20.5 ± 0.6", "unit": "g"}, {"measurement": "Body weight of animal", "setting": "[3]; [16]", "value": "20.7 ± 0.2", "unit": "g"}, {"measurement": "Body weight of animal", "setting": "[3]; [19]", "value": "20.1 ± 0.6", "unit": "g"}, {"measurement": "Body weight of animal", "setting": "[3]; [20]", "value": "21.0 ± 0.2", "unit": "g"}, {"measurement": "Body weight of animal", "setting": "[3]; [7]", "value": "19.5 ± 0.6", "unit": "g"}, {"measurement": "Body weight of animal", "setting": "[3]; [8]", "value": "19.7 ± 0.5", "unit": "g"}, {"measurement": "Body weight of animal", "setting": "[3]; [21]", "value": "19.8 ± 0.7", "unit": "g"}, {"measurement": "Body weight of animal", "setting": "[3]; [22]", "value": "20.7 ± 0.3", "unit": "g"}, {"measurement": "TGD (to 1,000 mm^3)", "setting": "[4]; 30 mg/kg i.v. BIW×4W", "value": ">7"}, {"measurement": "T/C (%) RTV", "setting": "[4]; 30 mg/kg i.v. BIW×4W", "value": 10, "unit": "%"}, {"measurement": "T/C (%) TW", "setting": "[4]; 30 mg/kg i.v. BIW×4W", "value": 8, "unit": "%"}, {"measurement": "TGD (to 1,000 mm^3)", "setting": "[4]; 45 mg/kg i.v. QW×4W", "value": ">7"}, {"measurement": "T/C (%) RTV", "setting": "[4]; 45 mg/kg i.v. QW×4W", "value": 11, "unit": "%"}, {"measurement": "T/C (%) TW", "setting": "[4]; 45 mg/kg i.v. QW×4W", "value": 10, "unit": "%"}, {"measurement": "RTV", "setting": "[4]; 30 mg/kg i.v. BIW×4W", "value": "0.94 ± 0.11"}, {"measurement": "Tumor weight", "setting": "[4]; 30 mg/kg i.v. BIW×4W", "value": "102 ± 15", "unit": "mg"}, {"measurement": "RTV", "setting": "[4]; 45 mg/kg i.v. QW×4W", "value": "1.05 ± 0.11"}, {"measurement": "Tumor weight", "setting": "[4]; 45 mg/kg i.v. QW×4W", "value": "129 ± 20", "unit": "mg"}, {"measurement": "Tumor volume", "setting": "[4]; [17]", "value": "140 ± 11", "unit": "mm^3"}, {"measurement": "Tumor volume", "setting": "[4]; [18]", "value": "139 ± 11", "unit": "mm^3"}, {"measurement": "Tumor volume", "setting": "[4]; day 28 after inoculation, 30 mg/kg i.v. BIW×4W", "value": "131 ± 8", "unit": "mm^3"}, {"measurement": "Tumor volume", "setting": "[4]; day 28 after inoculation, 45 mg/kg i.v. QW×4W", "value": "115 ± 8", "unit": "mm^3"}, {"measurement": "Tumor volume", "setting": "[4]; [19]", "value": "134 ± 11", "unit": "mm^3"}, {"measurement": "Tumor volume", "setting": "[4]; [20]", "value": "126 ± 10", "unit": "mm^3"}, {"measurement": "Tumor volume", "setting": "[4]; day 35 after inoculation, 30 mg/kg i.v. BIW×4W", "value": "124 ± 15", "unit": "mm^3"}, {"measurement": "Tumor volume", "setting": "[4]; day 35 after inoculation, 45 mg/kg i.v. QW×4W", "value": "122 ± 13", "unit": "mm^3"}, {"measurement": "Tumor volume", "setting": "[4]; [21]", "value": "131 ± 13", "unit": "mm^3"}, {"measurement": "Tumor volume", "setting": "[4]; [22]", "value": "120 ± 13", "unit": "mm^3"}, {"measurement": "Tumor volume", "setting": "[4]; day 42 after inoculation, 30 mg/kg i.v. BIW×4W", "value": "122 ± 8", "unit": "mm^3"}, {"measurement": "Tumor volume", "setting": "[4]; day 42 after inoculation, 45 mg/kg i.v. QW×4W", "value": "124 ± 9", "unit": "mm^3"}, {"measurement": "Tumor volume", "setting": "[4]; day 45 after inoculation, 30 mg/kg i.v. BIW×4W", "value": "131 ± 9", "unit": "mm^3"}, {"measurement": "Tumor volume", "setting": "[4]; day 45 after inoculation, 45 mg/kg i.v. QW×4W", "value": "140 ± 11", "unit": "mm^3"}, {"measurement": "Tumor volume", "setting": "[4]; day 49 after inoculation, 30 mg/kg i.v. BIW×4W", "value": "128 ± 9", "unit": "mm^3"}, {"measurement": "Tumor volume", "setting": "[4]; day 49 after inoculation, 45 mg/kg i.v. QW×4W", "value": "138 ± 14", "unit": "mm^3"}, {"measurement": "Tumor volume", "setting": "[4]; day 52 after inoculation, 30 mg/kg i.v. BIW×4W, 30 mg/kg", "value": "127 mm^3 and 127 ± 6 mm^3"}, {"measurement": "Tumor volume", "setting": "[4]; day 52 after inoculation, 45 mg/kg i.v. QW×4W, 45 mg/kg", "value": "145 mm^3 and 145 ± 14 mm^3"}]}
